Test results published in ChEMBL document CHEMBL1201862, “PubChem BioAssay data set” (2004).
Where “and” joins values, the source holds several entries; their conditions need not be identical. Equal values may be shown once.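 Protocol summary: plate cells (96-well), add compound at 5 concentrations, incubate 48 h, interpolate endpoints linearly. Here, GI50 denotes the concentration required for 50% inhibition of growth.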 Calls of active or inactive are those of the source. Cut-off read from the data, not from the text of the source: active = GI50 up to about 1.1 µM and inactive = higher.

Columns and labels:
Assay in all cases: NCI anticancer screen, dose series, 48 h
T47D = system: T47D
HCT-116 = system: HCT-116
KM12 = system: KM12
HT-29 = system: HT-29
RXF 393 = system: RXF 393
DU-145 = system: DU-145
HCT-15 = system: HCT-15
SF-295 = system: SF-295
HOP-92 = system: HOP-92
786-0 = system: 786-0
SW-620 = system: SW-620
Hs-578T = system: Hs-578T
BT-549 = system: BT-549
SK-MEL-28 = system: SK-MEL-28
IGROV-1 = system: IGROV-1
CAKI-1 = system: CAKI-1
ACHN = system: ACHN
CCRF-CEM = system: CCRF-CEM
NCI-H460 = system: NCI-H460
UO-31 = system: UO-31

| SMILES | GI50 (T47D) | GI50 (HCT-116) | GI50 (KM12) | GI50 (HT-29) | GI50 (RXF 393) | GI50 (DU-145) | GI50 (HCT-15) | GI50 (SF-295) | GI50 (HOP-92) | GI50 (786-0) | GI50 (SW-620) | GI50 (Hs-578T) | GI50 (BT-549) | GI50 (SK-MEL-28) | GI50 (IGROV-1) | GI50 (CAKI-1) | GI50 (ACHN) | GI50 (CCRF-CEM) | GI50 (NCI-H460) | GI50 (UO-31) |
| --- | --- | --- | --- | --- | --- | --- | --- | --- | --- | --- | --- | --- | --- | --- | --- | --- | --- | --- | --- | --- |
| CSc1nc(O)c(C#N)c(-c2ccc(Cl)cc2)n1 | 43.7 µM (inactive) | 72.1 µM (inactive) | > 100 µM (inactive) | > 100 µM (inactive) | 66.7 µM (inactive) | > 100 µM (inactive) | > 100 µM | > 100 µM (inactive) | 24.8 µM (inactive) | > 100 µM (inactive) | > 100 µM (inactive) | 64.9 µM (inactive) | > 100 µM (inactive) | > 100 µM (inactive) | > 100 µM (inactive) | > 100 µM (inactive) | > 100 µM (inactive) | 61 µM (inactive) | > 100 µM (inactive) | 36.5 µM (inactive) |
| C=C(Cl)C(Cl)(CBr)CCC(Br)C(C)(C)Cl (stereo not given) | 3.37 µM (inactive) and 416 nM (active) and 973 nM (active) | 508 nM (active) and 1.95 µM (inactive) and 448 nM (active) | 1.34 µM (inactive) and 2.32 µM (inactive) and 1.43 µM (inactive) | 497 nM (active) and 828 nM (active) and 735 nM (active) | 991 nM (active) and 190 nM (active) and 1.11 µM (active) | 2.76 µM (inactive) and 1.38 µM (inactive) | 2.07 µM and 13.3 µM and 3.18 µM | 1.79 µM (inactive) and 1.65 µM (inactive) and 1.35 µM (inactive) | 2.63 µM (inactive) and 1.42 µM (inactive) and 1.35 µM (inactive) | 640 nM (active) and 175 nM (active) and 247 nM (active) | 1.91 µM (inactive) and 12.2 µM (inactive) and 1.52 µM (inactive) | 914 nM (active) and 1.11 µM (active) and 665 nM (active) | 2.05 µM (inactive) and 1.04 µM (active) and 1.79 µM (inactive) | 1.73 µM (inactive) and 11.5 µM (inactive) and 2.28 µM (inactive) | 11.9 µM (inactive) and 21.5 µM (inactive) and 8.41 µM (inactive) | 217 nM (active) and 1.02 µM (active) and 828 nM (active) | 1.7 µM (inactive) and 1.18 µM (inactive) and 1.32 µM (inactive) | 5.08 µM (inactive) and 12.5 µM (inactive) and 4.5 µM (inactive) | 2.34 µM (inactive) and 1.57 µM (inactive) and 1.45 µM (inactive) | 1.85 µM (inactive) and 6.27 µM (inactive) and 1.99 µM (inactive) |
| O=C1/C(=C\c2ccc([N+](=O)[O-])o2)SC2NC(COc3ccc(Cl)cc3)=NN12 (stereo not given) | 1.79 µM (inactive) | 3.4 µM (inactive) | 13.7 µM (inactive) | 6.05 µM (inactive) | 17.6 µM (inactive) | 12.9 µM (inactive) | 2.07 µM | 19.3 µM (inactive) | 2.09 µM (inactive) | 3.4 µM (inactive) | 2.43 µM (inactive) | 24.4 µM (inactive) | 9.84 µM (inactive) | 4.17 µM (inactive) | 3.15 µM (inactive) | 13.1 µM (inactive) | 1.96 µM (inactive) | 1.99 µM (inactive) | 19.2 µM (inactive) | 4.62 µM (inactive) |
| O=C1/C(=C/C=C/c2ccccc2)CCC1CNc1ccc(Br)cc1 (stereo not given) | 34.1 µM (inactive) | 37.9 µM (inactive) | 15.2 µM (inactive) | > 100 µM (inactive) | > 100 µM (inactive) | 40.2 µM (inactive) | 4.86 µM | > 100 µM (inactive) | > 100 µM (inactive) | 82.2 µM (inactive) | 88.7 µM (inactive) | > 100 µM (inactive) | > 100 µM (inactive) | > 100 µM (inactive) | 46.8 µM (inactive) | > 100 µM (inactive) | 6.53 µM (inactive) | 22.7 µM (inactive) | 72.1 µM (inactive) | 48.4 µM (inactive) |
| CCC(CC)C(=O)OC[n+]1cccc(-c2c(COC(=O)NC(C)C)c(COC(=O)NC(C)C)c3n2CCC3)c1 | > 100 µM (inactive) | > 100 µM (inactive) | > 100 µM (inactive) | > 100 µM (inactive) | 61.4 µM (inactive) | > 100 µM (inactive) | > 100 µM | > 100 µM (inactive) | 72.3 µM (inactive) | 50 µM (inactive) | > 100 µM (inactive) | 50.7 µM (inactive) | > 100 µM (inactive) | > 100 µM (inactive) | > 100 µM (inactive) | 49.4 µM (inactive) | 40.8 µM (inactive) | 38.4 µM (inactive) | 45.8 µM (inactive) | > 100 µM (inactive) |
| Cc1c2c(c(C)n1-c1ccccc1)C(=O)N(CCSC(=N)N)C2=O | 1.9 µM (inactive) | > 100 µM (inactive) | > 100 µM (inactive) | > 100 µM (inactive) | 40.2 µM (inactive) | > 100 µM (inactive) | > 100 µM | 22.6 µM (inactive) | > 100 µM (inactive) | > 100 µM (inactive) | > 100 µM (inactive) | > 100 µM (inactive) | > 100 µM (inactive) | > 100 µM (inactive) | > 100 µM (inactive) | 50 µM (inactive) | 32.6 µM (inactive) | > 100 µM (inactive) | 12.3 µM (inactive) | > 100 µM (inactive) |
| OCCCCCCOc1ccc(-c2cc(-c3ccccn3)nc(-c3ccccn3)c2)cc1 | 0.148 µM (active) | 0.132 µM (active) | 0.388 µM (active) | 0.228 µM (active) | 0.239 µM (active) | 0.0716 µM (active) | 0.109 µM | 0.194 µM (active) | 0.643 µM (active) | 0.0944 µM (active) | 0.367 µM (active) | 0.419 µM (active) | 0.149 µM (active) | 0.248 µM (active) | 0.205 µM (active) | 0.256 µM (active) | 0.108 µM (active) | 0.026 µM (active) | 0.104 µM (active) | 0.202 µM (active) |
| Cn1c(=O)nc2n(-c3ccc(Cl)cc3)c3cc(Cl)ccc3nc-2c1=O | 0.92 µM (active) | 3.92 µM (inactive) | 5.52 µM (inactive) | 2.62 µM (inactive) | 4.45 µM (inactive) | 15.6 µM (inactive) | 1.82 µM | 10.9 µM (inactive) | 7.31 µM (inactive) | 10.5 µM (inactive) | 2.12 µM (inactive) | 2.48 µM (inactive) | 4.12 µM (inactive) | 3.2 µM (inactive) | 1.6 µM (inactive) | 10.9 µM (inactive) | 12.6 µM (inactive) | 5.82 µM (inactive) | 10 µM (inactive) | 11.4 µM (inactive) |
| CSc1nc(SC)c2c(C)cn(C3OC(C)C(O)C(O)C3O)c2n1 (stereo not given) | 34.1 µM (inactive) | > 100 µM (inactive) | 56.8 µM (inactive) | 53.7 µM (inactive) | > 100 µM (inactive) | 62.5 µM (inactive) | 74.1 µM | 57 µM (inactive) | 32.6 µM (inactive) | > 100 µM (inactive) | > 100 µM (inactive) | 45.6 µM (inactive) | 39.2 µM (inactive) | 84.3 µM (inactive) | 70 µM (inactive) | < 0.01 µM (active) | 58.2 µM (inactive) | 45.7 µM (inactive) | 43.1 µM (inactive) | 36.3 µM (inactive) |
| CC(=O)NNc1nc(C)c(C(/C=C/c2ccc([N+](=O)[O-])cc2)=N/N)s1 | > 100 µM (inactive) | > 100 µM (inactive) | > 100 µM (inactive) | > 100 µM (inactive) | 55.3 µM (inactive) | 96.4 µM (inactive) | > 100 µM | > 100 µM (inactive) | > 100 µM (inactive) | > 100 µM (inactive) | > 100 µM (inactive) | > 100 µM (inactive) | > 100 µM (inactive) | > 100 µM (inactive) | 54 µM (inactive) | > 100 µM (inactive) | > 100 µM (inactive) | > 100 µM (inactive) | > 100 µM (inactive) | > 100 µM (inactive) |
| COc1ccc2c(c1)/C(=C\c1c(Cl)nc3sc(C)cn13)C(=O)N2 | 3.99 µM (inactive) | 3.1 µM (inactive) | 1.71 µM (inactive) | 2.41 µM (inactive) | 8.22 µM (inactive) | 5.74 µM (inactive) | 2.62 µM | 1.74 µM (inactive) | 10.6 µM (inactive) | 4.22 µM (inactive) | 0.826 µM (active) | 2.74 µM (inactive) | 5.21 µM (inactive) | 8.17 µM (inactive) | 3.72 µM (inactive) | 3.37 µM (inactive) | 6.95 µM (inactive) | 1.19 µM (inactive) | 2.51 µM (inactive) | 5.45 µM (inactive) |
